Columns and labels:
Experiment in all cases: Post-emergence herbicidal action
Assay type in all cases: in vivo
Amaranthus retroflexus = details: application rate 20 g/ha, rated visually after about 3 weeks vs untreated controls
Protocol: (§1) a. Post-Emergence Herbicidal Action and Crop Plant Compatibility Seeds of monocotyledonous and dicotyledonous weeds and crop plants were placed in sandy loam in plastic or wood-fiber pots, covered with soil and cultivated in a greenhouse under controlled growth conditions. 2 to 3 weeks after sowing, the test plants were treated at the one-leaf stage. The compounds of the invention, formulated in the form of wettable powders (WP) or as emulsion concentrates (EC), were then sprayed onto the green parts of the plants as aqueous suspension or emulsion with addition of 0.5% additive at a water application rate of 600 l/ha (converted). After the test plants had been kept in the greenhouse under optimum growth conditions for about 3 weeks, the activity of the preparations was rated visually in comparison to untreated controls. For example, 100% activity=the plants have died, 0% activity=like control plants. Tables A1 to A15 below show the effects of selected compounds of the general formula (I) according to Tables I.1 to I.36 on various harmful plants and at an application rate corresponding to 20 g/ha and less, which were obtained by the experimental procedure mentioned above.

Lolium rigidum = details: application rate 20 g/ha, rated visually after about 3 weeks vs untreated controls
Protocol: as §1

Veronica persica = details: application rate 20 g/ha
Protocol: as §1

Setaria viridis = details: application rate 20 g/ha, rated visually after about 3 weeks vs untreated controls
Protocol: as §1

Abutilon theophrasti = details: application rate 20 g/ha, rated visually after about 3 weeks vs untreated controls
Protocol: as §1

Digitaria sanguinalis = details: application rate 20 g/ha, rated visually after about 3 weeks vs untreated controls
Protocol: as §1

Pharbitis purpurea = details: application rate 20 g/ha, rated visually after about 3 weeks vs untreated controls
Protocol: as §1

Echinochloa crus-galli = details: application rate 20 g/ha, rated visually after about 3 weeks vs untreated controls
Protocol: as §1

Polygonum convolvulus = details: application rate 20 g/ha
Protocol: as §1

Avena fatua = details: application rate 20 g/ha, rated visually after about 3 weeks vs untreated controls
Protocol: as §1

Alopecurus myosuroides = details: application rate 20 g/ha, rated visually after about 3 weeks vs untreated controls
Protocol: as §1

Matricaria inodora = details: application rate 20 g/ha, rated visually after about 3 weeks vs untreated controls
Protocol: as §1

Viola tricolor = details: application rate 20 g/ha
Protocol: as §1

SMILES | Amaranthus retroflexus (efficacy in %) (Amaranthus retroflexus) [%] | Lolium rigidum (efficacy in %) (Lolium rigidum) [%] | Veronica persica (efficacy in %) (Veronica persica) [%] | Setaria viridis (efficacy in %) (Setaria viridis) [%] | Abutilon theophrasti (efficacy in %) (Abutilon theophrasti) [%] | Digitaria sanguinalis (efficacy in %) (Digitaria sanguinalis) [%] | Pharbitis purpurea (efficacy in %) (Pharbitis purpurea) [%] | Echinochloa crus-galli (efficacy in %) (Echinochloa crus-galli) [%] | Polygonum convolvulus (efficacy in %) (Polygonum convolvulus) [%] | Avena fatua (efficacy in %) (Avena fatua) [%] | Alopecurus myosuroides (efficacy in %) (Alopecurus myosuroides) [%] | Matricaria inodora (efficacy in %) (Matricaria inodora) [%] | Viola tricolor (efficacy in %) (Viola tricolor) [%]
CCOCCOC(=O)COc1ncccc1Oc1cc(-n2c(=O)cc(C(F)(F)F)n(C)c2=O)c(F)cc1Cl [I.15-2] | 100 | 90 | 100 | 100 | 100 | 100 | 100 | 100 | 100 | 90 | 100 | 100 | 100
Cc1nn(C)cc1COC(=O)COc1ncccc1Oc1cc(-n2c(=O)cc(C(F)(F)F)n(C)c2=O)c(F)cc1Cl [I.15-366] | 100 | 90 | 100 | 100 | 100 | 100 | 100 | 100 | – | 90 | 100 | 100 | 100
Cc1c(COC(=O)COc2ncccc2Oc2cc(-n3c(=O)cc(C(F)(F)F)n(C)c3=O)c(F)cc2Cl)cnn1C [I.15-367] | 100 | 80 | 100 | 100 | 100 | 100 | 100 | 100 | – | 90 | 100 | 100 | 100
CCn1cc(COC(=O)COc2ncccc2Oc2cc(-n3c(=O)cc(C(F)(F)F)n(C)c3=O)c(F)cc2Cl)c(C)n1 [I.15-368] | 100 | 90 | 100 | 100 | 100 | 100 | 100 | 100 | – | 100 | 100 | 100 | 100
CCS(=O)(=O)NCCOC(=O)COc1ncccc1Oc1cc(-n2c(=O)cc(C(F)(F)F)n(C)c2=O)c(F)cc1Cl [I.15-421] | 100 | 100 | 100 | 100 | 100 | 100 | 100 | 100 | 100 | 100 | 100 | 100 | 100
CCOC(COC(=O)COc1ncccc1Oc1cc(-n2c(=O)cc(C(F)(F)F)n(C)c2=O)c(F)cc1Cl)OCC [I.15-422] | 100 | 100 | 100 | 100 | 100 | 100 | 100 | 100 | 100 | 80 | 100 | 100 | 100
COCCOC(=O)COc1ncccc1Oc1cc(-n2c(=O)cc(C(F)(F)F)n(C)c2=O)c(F)cc1Br [I.16-1] | 100 | 90 | 100 | 100 | 100 | 100 | 100 | 100 | 100 | 90 | 100 | 100 | 100
COCCOCCOC(=O)COc1ncccc1Oc1cc(-n2c(=O)cc(C(F)(F)F)n(C)c2=O)c(F)cc1C#N [I.35-23] | 100 | – | 100 | 100 | 100 | 100 | 100 | 100 | – | 90 | 100 | 100 | 100
COCCOCCOC(=O)COc1ncc(F)cc1Oc1cc(-n2c(=O)cc(C(F)(F)F)n(C)c2=O)c(F)cc1Cl [I.36-23] | 100 | 90 | 100 | 100 | 100 | 100 | 100 | 100 | 90 | – | 100 | 100 | 100

From patent US20220289708A1, “SUBSTITUTED N-PHENYL URACILS, SALTS THEREOF AND THEIR USE AS HERBICIDAL AGENTS” (Bayer Aktiengesellschaft, priority 2019, published 2022)
